Experimental data: patent publication US20110230481A2, “DERIVATIVES OF TETRABROMOBENZIMIDAZOLE, A PROCESS FOR THE PREPARATION THEREOF, A PHARMACEUTICAL COMPOSITION COMPRISING THE SAME, A METHOD OF USING THE SAME, A METHOD FOR MODULATING OR REGULATING SERINE/THREONINE KINASES, AND SERINE/THREONINE KINASES MODULATING AGENT” (SELVITA S.A., priority 2009, published 2011)

Assays:
Test in all cases: KINOMEscan Max
Format in all cases: binding
[1] = target: T1, FGFR1 (Homo sapiens, UniProt P11362)
T1 construct: purchased Ambit Kinomescan (contract panel, KINOMEscan Max)
Summary of the method: (§1)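 Active-site competition binding format, not an activity assay. Tagged kinase retained on immobilized ligand is detected by quantitative PCR of its DNA label.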

[2] = target: T2, MKNK2 (Homo sapiens, UniProt Q9HBH9)
T2 construct: DNA tag (qPCR read-out)
Summary of the method: as §1

[3] = target: BLK (Homo sapiens, UniProt P51451)
Summary of the method: as §1

[4] = target: T3, CDKL2 (Homo sapiens, UniProt Q92772)
T3 construct: purchased Ambit (KINOMEscan Max service)
Summary of the method: as §1

[5] = target: T4, EPHA7 (Homo sapiens, UniProt Q15375)
T4 construct: purchased Ambit (KINOMEscan Max panel service)
Summary of the method: as §1

[6] = target: CIT (Homo sapiens, UniProt O14578); conditions: 1 μM
Summary of the method: as §1

[7] = target: T5, ERBB2 (Homo sapiens, UniProt P04626)
T5 construct: purchased Ambit Kinomescan (contract panel, KINOMEscan Max)
Summary of the method: as §1

[8] = target: T6, MAP3K4 (Homo sapiens, UniProt Q9Y6R4)
T6 construct: purchased Ambit Kinomescan (contract panel)
Summary of the method: as §1

[9] = target: T7, ERBB3 (Homo sapiens, UniProt P21860)
T7 construct: purchased Ambit (KINOMEscan Max service)
Summary of the method: as §1

[10] = target: AURKA (Homo sapiens, UniProt O14965)
Summary of the method: as §1

[11] = target: T8, ROS1 (Homo sapiens, UniProt P08922)
T8 construct: DNA tag (qPCR read-out)
Summary of the method: as §1

[12] = target: T9, DDR1 (Homo sapiens, UniProt Q08345)
T9 construct: purchased Ambit (KINOMEscan Max panel service)
Summary of the method: as §1

[13] = target: T10, CAMK2G (Homo sapiens, UniProt Q13555)
T10 construct: DNA tag (qPCR label); purchased Ambit Kinomescan (contract screening)
Summary of the method: as §1

[14] = target: T11, PFCDPK1(P.falciparum) (Plasmodium falciparum, UniProt P62344)
T11 construct: purchased Ambit Kinomescan (contract screening)
Summary of the method: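 In this platform each kinase carries a DNA tag and is offered an immobilized ligand aimed at the active site; test compound competes for binding, and the amount of kinase held on the ligand is measured by qPCR.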

[15] = target: MKK7 (Homo sapiens, UniProt O14733); conditions: 1 μM
Summary of the method: as §1

[16] = target: T12, PAK4 (Homo sapiens, UniProt O96013)
T12 construct: purchased Ambit (KINOMEscan Max service)
Summary of the method: as §1

[17] = target: T13, HIPK4 (Homo sapiens, UniProt Q8NE63)
T13 construct: DNA tag (qPCR read-out)
Summary of the method: as §1

[18] = target: T14, PYK2 (Homo sapiens, UniProt Q14289)
T14 construct: DNA tag (qPCR read-out)
Summary of the method: as §1

[19] = target: T15, BMPR1A (Homo sapiens, UniProt P36894)
T15 construct: DNA tag (qPCR label); purchased Ambit Kinomescan (contract screening)
Summary of the method: as §1

[20] = target: FLT4 (Homo sapiens, UniProt P35916)
Summary of the method: as §1

[21] = target: T16, DDR2 (Homo sapiens, UniProt Q16832)
T16 construct: purchased Ambit (KINOMEscan Max panel service)
Summary of the method: as §1

[22] = target: T17, ITK (Homo sapiens, UniProt Q08881); conditions: 1 μM
T17 construct: purchased Ambit Kinomescan (contract panel)
Summary of the method: as §1

[23] = target: T18, RIOK3 (Homo sapiens, UniProt O14730)
T18 construct: DNA tag (qPCR read-out)
Summary of the method: as §1

[24] = target: T19, LZK (Homo sapiens, UniProt O43283); conditions: 1 μM
T19 construct: purchased Ambit Kinomescan (contract panel)
Summary of the method: as §1

[25] = target: CSNK1G3 (Homo sapiens, UniProt Q9Y6M4); conditions: 1 μM
Summary of the method: as §1

[26] = target: T20, CAMK1G (Homo sapiens, UniProt Q96NX5)
T20 construct: DNA tag (qPCR label); purchased Ambit Kinomescan (contract screening)
Summary of the method: as §1

[27] = target: T21, PRKG2 (Homo sapiens, UniProt Q13237)
T21 construct: DNA tag (qPCR read-out); purchased Ambit Kinomescan
Summary of the method: as §1

[28] = target: T22, PIK4CB (Homo sapiens, UniProt Q9UBF8)
T22 construct: DNA tag (qPCR read-out)
Summary of the method: as §1

[29] = target: T23, VEGFR2 (Homo sapiens, UniProt P35968)
T23 construct: purchased Ambit Kinomescan (contract screening)
Summary of the method: as §1

[30] = target: PHKG1 (Homo sapiens, UniProt Q16816)
Summary of the method: as §1

[31] = target: T24, PRKCE (Homo sapiens, UniProt Q02156)
T24 construct: DNA tag (qPCR read-out); purchased Ambit Kinomescan
Summary of the method: as §1

[32] = target: T25, ANKK1 (Homo sapiens, UniProt Q8NFD2)
T25 construct: DNA tag (qPCR label); purchased Ambit Kinomescan (contract screening)
Summary of the method: as §1

[33] = target: TRKB (Homo sapiens, UniProt Q16620)
Summary of the method: as §1

[34] = target: T26, PKAC-beta (Homo sapiens, UniProt P22694)
T26 construct: purchased Ambit (KINOMEscan Max service)
Summary of the method: as §1

[35] = target: T27, EPHB2 (Homo sapiens, UniProt P29323); conditions: 1 μM
T27 construct: purchased Ambit (KINOMEscan Max service)
Summary of the method: as §1

T14 sequence (Q14289 whole entry): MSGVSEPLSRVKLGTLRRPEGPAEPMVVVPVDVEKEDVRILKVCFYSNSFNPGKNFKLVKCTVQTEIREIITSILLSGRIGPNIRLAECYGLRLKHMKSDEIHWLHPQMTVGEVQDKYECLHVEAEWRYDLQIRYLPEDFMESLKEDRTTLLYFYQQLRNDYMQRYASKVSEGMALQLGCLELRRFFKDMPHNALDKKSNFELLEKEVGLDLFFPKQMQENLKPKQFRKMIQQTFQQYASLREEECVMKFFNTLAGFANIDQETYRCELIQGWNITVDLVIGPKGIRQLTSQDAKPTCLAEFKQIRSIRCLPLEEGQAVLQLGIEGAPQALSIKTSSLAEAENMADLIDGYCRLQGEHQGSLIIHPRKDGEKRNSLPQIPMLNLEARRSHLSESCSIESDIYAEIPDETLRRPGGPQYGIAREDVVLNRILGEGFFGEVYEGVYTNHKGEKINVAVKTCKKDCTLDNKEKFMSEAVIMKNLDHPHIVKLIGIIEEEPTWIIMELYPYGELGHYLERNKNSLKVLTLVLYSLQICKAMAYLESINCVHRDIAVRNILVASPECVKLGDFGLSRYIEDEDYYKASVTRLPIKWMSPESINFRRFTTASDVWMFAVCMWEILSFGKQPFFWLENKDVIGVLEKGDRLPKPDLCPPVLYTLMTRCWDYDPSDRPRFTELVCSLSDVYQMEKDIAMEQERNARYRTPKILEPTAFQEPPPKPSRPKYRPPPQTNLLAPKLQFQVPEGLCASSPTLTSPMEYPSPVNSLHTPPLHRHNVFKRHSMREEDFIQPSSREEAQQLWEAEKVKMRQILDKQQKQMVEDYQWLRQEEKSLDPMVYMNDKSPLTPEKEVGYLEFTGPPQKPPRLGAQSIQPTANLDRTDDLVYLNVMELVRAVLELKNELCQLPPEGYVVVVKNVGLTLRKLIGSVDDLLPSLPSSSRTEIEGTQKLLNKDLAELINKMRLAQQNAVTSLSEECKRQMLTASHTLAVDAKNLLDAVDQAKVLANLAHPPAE
Sequence of BLK (P51451 whole entry): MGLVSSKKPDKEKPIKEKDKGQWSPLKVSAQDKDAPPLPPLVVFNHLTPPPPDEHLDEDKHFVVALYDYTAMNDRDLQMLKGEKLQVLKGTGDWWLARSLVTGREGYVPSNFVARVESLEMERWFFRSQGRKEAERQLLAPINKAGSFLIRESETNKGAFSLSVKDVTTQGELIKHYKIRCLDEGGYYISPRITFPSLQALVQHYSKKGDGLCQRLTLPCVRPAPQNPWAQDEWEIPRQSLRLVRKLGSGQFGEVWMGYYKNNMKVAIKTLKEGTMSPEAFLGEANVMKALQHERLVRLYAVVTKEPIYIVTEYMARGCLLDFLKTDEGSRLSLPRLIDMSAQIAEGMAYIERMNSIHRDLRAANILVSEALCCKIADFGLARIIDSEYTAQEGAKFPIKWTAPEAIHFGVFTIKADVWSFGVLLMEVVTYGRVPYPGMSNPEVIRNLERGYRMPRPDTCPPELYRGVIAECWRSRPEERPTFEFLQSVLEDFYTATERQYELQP
T23 sequence (P35968 20-1356): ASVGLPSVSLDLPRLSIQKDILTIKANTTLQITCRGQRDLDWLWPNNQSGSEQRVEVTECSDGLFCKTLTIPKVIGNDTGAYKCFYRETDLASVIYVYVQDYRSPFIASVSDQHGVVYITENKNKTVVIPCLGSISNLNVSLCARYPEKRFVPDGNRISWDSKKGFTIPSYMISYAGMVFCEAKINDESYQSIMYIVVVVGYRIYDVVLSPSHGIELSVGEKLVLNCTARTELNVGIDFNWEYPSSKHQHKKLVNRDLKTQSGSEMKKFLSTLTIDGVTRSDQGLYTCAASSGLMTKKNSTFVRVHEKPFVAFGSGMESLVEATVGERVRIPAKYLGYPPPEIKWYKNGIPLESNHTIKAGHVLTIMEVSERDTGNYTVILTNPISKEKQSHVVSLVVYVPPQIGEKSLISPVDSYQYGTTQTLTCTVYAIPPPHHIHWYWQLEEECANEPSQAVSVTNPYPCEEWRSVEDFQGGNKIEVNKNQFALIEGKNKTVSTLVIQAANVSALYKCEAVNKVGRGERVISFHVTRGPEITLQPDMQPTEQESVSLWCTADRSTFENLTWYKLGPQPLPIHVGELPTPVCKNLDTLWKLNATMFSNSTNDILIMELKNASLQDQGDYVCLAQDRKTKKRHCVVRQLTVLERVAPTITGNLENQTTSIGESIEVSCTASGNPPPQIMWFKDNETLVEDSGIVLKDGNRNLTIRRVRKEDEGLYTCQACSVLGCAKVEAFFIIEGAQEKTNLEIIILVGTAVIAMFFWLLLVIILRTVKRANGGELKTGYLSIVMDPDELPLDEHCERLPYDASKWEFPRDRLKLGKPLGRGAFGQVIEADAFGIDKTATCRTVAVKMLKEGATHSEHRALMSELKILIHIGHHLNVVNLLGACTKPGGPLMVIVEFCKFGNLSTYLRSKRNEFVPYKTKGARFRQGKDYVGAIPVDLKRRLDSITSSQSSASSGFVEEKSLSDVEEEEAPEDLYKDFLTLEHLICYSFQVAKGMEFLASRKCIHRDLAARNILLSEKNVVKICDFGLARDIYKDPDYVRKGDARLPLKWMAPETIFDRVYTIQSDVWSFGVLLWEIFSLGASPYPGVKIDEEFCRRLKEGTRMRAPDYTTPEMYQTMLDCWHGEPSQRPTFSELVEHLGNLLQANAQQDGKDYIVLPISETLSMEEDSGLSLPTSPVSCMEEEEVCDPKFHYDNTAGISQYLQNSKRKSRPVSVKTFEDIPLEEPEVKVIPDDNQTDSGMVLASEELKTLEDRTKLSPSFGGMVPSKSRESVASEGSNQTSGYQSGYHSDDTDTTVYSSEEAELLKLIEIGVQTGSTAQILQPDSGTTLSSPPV
T3 sequence (Q92772 whole entry): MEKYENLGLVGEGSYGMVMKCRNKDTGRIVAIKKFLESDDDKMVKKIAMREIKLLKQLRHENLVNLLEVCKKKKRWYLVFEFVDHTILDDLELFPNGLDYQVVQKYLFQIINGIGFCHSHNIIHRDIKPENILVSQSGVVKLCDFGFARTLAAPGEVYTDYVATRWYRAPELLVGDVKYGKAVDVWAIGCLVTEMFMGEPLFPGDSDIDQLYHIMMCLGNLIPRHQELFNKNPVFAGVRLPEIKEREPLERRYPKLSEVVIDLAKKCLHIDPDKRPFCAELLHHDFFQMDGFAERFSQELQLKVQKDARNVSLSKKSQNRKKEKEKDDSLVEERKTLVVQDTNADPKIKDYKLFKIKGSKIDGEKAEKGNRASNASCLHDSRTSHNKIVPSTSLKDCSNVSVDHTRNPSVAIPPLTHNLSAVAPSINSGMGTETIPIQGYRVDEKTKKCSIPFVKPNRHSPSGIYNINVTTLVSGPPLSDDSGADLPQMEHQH
Sequence of AURKA (O14965 whole entry): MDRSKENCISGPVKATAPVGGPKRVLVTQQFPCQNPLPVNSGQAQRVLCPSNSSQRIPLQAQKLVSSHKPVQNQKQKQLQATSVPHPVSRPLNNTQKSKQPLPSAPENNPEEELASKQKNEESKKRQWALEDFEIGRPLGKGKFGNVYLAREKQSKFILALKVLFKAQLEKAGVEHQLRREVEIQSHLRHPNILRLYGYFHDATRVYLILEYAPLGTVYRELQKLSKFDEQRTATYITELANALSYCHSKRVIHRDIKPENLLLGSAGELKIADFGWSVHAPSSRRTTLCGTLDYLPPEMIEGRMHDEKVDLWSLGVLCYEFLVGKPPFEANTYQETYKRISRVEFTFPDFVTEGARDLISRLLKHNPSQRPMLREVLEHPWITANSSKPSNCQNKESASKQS
T9 sequence (Q08345 19-913): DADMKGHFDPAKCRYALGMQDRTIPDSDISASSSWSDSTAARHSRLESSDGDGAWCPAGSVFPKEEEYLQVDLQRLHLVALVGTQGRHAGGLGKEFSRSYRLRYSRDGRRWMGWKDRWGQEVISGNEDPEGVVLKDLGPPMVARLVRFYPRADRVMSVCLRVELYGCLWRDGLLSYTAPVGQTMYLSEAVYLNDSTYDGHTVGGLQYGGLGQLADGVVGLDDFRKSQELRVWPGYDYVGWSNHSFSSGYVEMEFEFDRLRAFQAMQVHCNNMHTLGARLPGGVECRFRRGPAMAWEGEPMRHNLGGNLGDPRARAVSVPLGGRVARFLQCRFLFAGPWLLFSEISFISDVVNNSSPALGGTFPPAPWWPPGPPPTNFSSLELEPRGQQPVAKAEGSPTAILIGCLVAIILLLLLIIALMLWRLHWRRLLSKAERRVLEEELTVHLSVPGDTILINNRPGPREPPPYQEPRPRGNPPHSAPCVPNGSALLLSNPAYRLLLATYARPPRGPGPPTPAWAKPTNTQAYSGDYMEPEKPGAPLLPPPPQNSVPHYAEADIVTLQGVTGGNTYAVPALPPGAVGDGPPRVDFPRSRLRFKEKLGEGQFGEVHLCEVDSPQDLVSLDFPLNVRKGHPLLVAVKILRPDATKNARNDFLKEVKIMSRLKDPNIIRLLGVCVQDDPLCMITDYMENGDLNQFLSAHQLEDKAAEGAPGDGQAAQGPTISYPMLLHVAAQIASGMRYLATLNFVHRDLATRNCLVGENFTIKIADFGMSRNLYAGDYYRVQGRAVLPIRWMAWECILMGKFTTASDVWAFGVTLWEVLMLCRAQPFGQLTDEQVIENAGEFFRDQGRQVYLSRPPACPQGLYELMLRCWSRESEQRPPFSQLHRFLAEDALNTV
Sequence of MKK7 (O14733 whole entry): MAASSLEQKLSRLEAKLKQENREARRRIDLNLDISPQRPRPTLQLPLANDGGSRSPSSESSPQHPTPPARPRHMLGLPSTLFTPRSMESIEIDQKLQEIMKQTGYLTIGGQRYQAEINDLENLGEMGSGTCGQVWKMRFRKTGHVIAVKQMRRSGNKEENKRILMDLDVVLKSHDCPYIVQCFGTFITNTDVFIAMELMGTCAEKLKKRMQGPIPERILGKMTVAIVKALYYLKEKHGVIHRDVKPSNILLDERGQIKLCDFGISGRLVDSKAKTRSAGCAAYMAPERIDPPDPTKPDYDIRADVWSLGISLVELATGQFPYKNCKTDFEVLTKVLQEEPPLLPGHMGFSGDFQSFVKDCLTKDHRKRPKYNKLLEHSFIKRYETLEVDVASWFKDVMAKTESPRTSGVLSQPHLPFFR

NCCCNc1nc2c(Br)c(Br)c(Br)c(Br)c2[nH]1 [Compound 11, N-(3-aminopropyl)-4,5,6,7-tetrabromo-1H-benzo[d]imidazol-2-amine]
remaining binding at 1 µM [1]: 100%
remaining binding at 1 µM [2]: 35%
remaining binding at 1 µM [3]: 96%
remaining binding at 1 µM [4]: 85%
remaining binding at 1 µM [5]: 100%
% binding [6]: 93%
remaining binding at 1 µM [7]: 100%
remaining binding at 1 µM [8]: 100%
remaining binding at 1 µM [9]: 68%
remaining binding at 1 µM [10]: 96%
remaining binding at 1 µM [11]: 100%
remaining binding at 1 µM [12]: 100%
remaining binding at 1 µM [13]: 100%
remaining binding at 1 µM [14]: 96%
% binding [15]: 100%
remaining binding at 1 µM [16]: 85%
remaining binding at 1 µM [17]: 53%
remaining binding at 1 µM [18]: 100%
remaining binding at 1 µM [19]: 100%
remaining binding at 1 µM [20]: 94%
remaining binding at 1 µM [21]: 100%
% binding [22]: 100%
remaining binding at 1 µM [23]: 52%
% binding [24]: 100%
% binding [25]: 92%
remaining binding at 1 µM [26]: 100%
remaining binding at 1 µM [27]: 7%
remaining binding at 1 µM [28]: 100%
remaining binding at 1 µM [29]: 96%
remaining binding at 1 µM [30]: 94%
remaining binding at 1 µM [31]: 23%
remaining binding at 1 µM [32]: 100%
remaining binding at 1 µM [33]: 92%
remaining binding at 1 µM [34]: 84%
% binding [35]: 72%
